Laboratory results published in patent publication US10501414B2, “Indole analogs as 5-oxo-ETE receptor antagonists and method of use thereof” (THE ROYAL INSTITUTION FOR THE ADVANCEMENT OF …, priority 2015, dated 2019).
Entries after “also recorded” stand apart in the source; their conditions may differ. Read-outs that look alike come from different tables or passages of the source. Values belong to the molecule of their own block, whether it stands above or below them.

What was measured:
[1] = Antagonist concentrations in blood (plasma) following oral administration; assay type: in vivo; settings: cynomolgus monkeys
Protocol: Measurement of Antagonist Concentrations in Blood Following Oral Administration
Antagonists dissolved in ethanol (5 to 75 mg/ml) and added to 20 mM NaHCO3 pH 8.0. The resulting suspension (7 to 13 ml containing 10% ethanol) was administered by gavage (between 1 and 30 mg/kg) to cynomolgous monkeys (3 to 4 kg body weight). After different times (between 0.5 and 24 h as well as just prior to administration of antagonist) blood samples (1-2 ml) were taken and centrifuged to obtain plasma, which was frozen and transported to the laboratory as soon as the experiment was complete. Upon arrival at the laboratory, the plasma samples were thawed and the internal standards (1.5 μg), along with 2 volumes of MeOH, were added, the mixture vortexed, and then stored at −80° C. until analysis. The internal standards were structural analogs containing different numbers of methylene groups. Prior to analysis the plasma samples were warmed to room temperature, the above plasma samples containing MeOH were centrifuged and water was added to the supernatant to give a final concentration of 30%. The samples were then applied to a C18 SepPak cartridge (Waters Associates) that had previously been washed with MeOH followed by water (Powell, W. S., Prostaglandins, 1980. 20: p. 947-957). The extracts were analyzed by reversed-phase HPLC combined with automated precolumn extraction (Powell, W. S., Anal. Biochem., 1987. 164: p. 117-131). The stationary phase for the separation was a Novapak C18 column (4 μm particle size; 3.9×150 mm). The amounts of antagonists were determined on the basis of UV absorbance by comparing the peak area for the antagonist in question with that for the corresponding internal standard and correcting for any difference in extinction coefficient.
To examine the PK profiles of compounds V197 and V230 these compounds were administered to cynomolgus monkeys by oral gavage at a dose of 30 mg/kg. Plasma levels were measured following solid-phase extraction by reversed-phase high performance liquid chromatography (HPLC) after 0.5, 1, 2, 4, 8, 18, and 24 h using appropriate internal standards.

OXE receptor [2] = target: T1, OXE receptor (Homo sapiens, UniProt Q8TDS5); assay: Calcium mobilization in human granulocytes (inhibition of 5-oxo-ETE-induced calcium mobilization); assay type: cell-based; settings: for times less potent than compound V230 in blocking 5-oxo-ETE-induced calcium mobilization in neutrophils: relative to V230
T1 construct: Human granulocytes (≥95% neutrophils) are prepared from whole blood; endogenous in cells; host or cells: human granulocytes (≥95% neutrophils) from whole blood
T1 sequence (Q8TDS5 whole entry): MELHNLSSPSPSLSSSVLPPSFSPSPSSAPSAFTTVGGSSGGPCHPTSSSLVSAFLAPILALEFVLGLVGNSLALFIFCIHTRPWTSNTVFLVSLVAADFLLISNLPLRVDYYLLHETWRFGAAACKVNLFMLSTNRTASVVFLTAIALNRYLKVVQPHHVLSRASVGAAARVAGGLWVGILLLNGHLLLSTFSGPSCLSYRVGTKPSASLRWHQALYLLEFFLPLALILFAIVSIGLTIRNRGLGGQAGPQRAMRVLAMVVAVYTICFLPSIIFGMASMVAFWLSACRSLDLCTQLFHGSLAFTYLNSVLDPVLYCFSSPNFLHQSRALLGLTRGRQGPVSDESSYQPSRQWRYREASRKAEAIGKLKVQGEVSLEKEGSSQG
Protocol: Evaluation of Antagonist Activity: Calcium Mobilization in Human Granulocytes
Human granulocytes (≥95% neutrophils) are prepared from whole blood using Dextran 500 to remove red blood cells, followed by centrifugation over Ficoll-Paque to remove mononuclear cells and hypotonic lysis of any remaining red blood cells. After centrifugation the granulocytes are suspended in Ca^++/Mg^++-free phosphate-buffered saline (PBS^−). Granulocytes (10^7 cells/ml) are incubated with the acetoxymethyl ester of indo-1 (1 μM) for 30 min, followed by washing twice with PBS^− and resuspension in the same medium to obtain a final cell concentration of 3.22×10^6 cells/ml. Five minutes prior to commencing data acquisition, Ca^++ and Mg^++ are added to give final concentrations of 1.8 and 1 mM, respectively. Calcium measurements are performed at 37° C. using a spectrofluorometer equipped with a temperature-controlled cuvette holder and a magnetic stirrer. The excitation and emission wavelengths are 331 nm and 410 nm, respectively. Following stabilization of the baseline, fluorescence is measured for 1 min, prior to the addition of either vehicle or various concentrations of a potential 5-oxo-ETE antagonist. Two min later, 5-oxo-ETE (10 nM) is added, followed 1 min later by digitonin (final concentration 0.1%). Data acquisition is terminated after a further 0.5 min. Fmax is determined from fluorescence measurements after the addition of digitonin, whereas Fmin is determined after determination of autofluorescence as described in the literature. A dissociation constant of 250 nM for the indo-1/Ca^++ complex is used to calculate [Ca^++]i. The % inhibition of 5-oxo-ETE-induced calcium mobilization by the antagonist is calculated as follows: Inhibition (%)=(1−(Caant/Ca^++veh))×100 where Caant is the increase in cytosolic calcium levels induced by 5-oxo-ETE (10 nM) following the addition of a potential antagonist, whereas Caveh is the response induced by 5-oxo-ETE following addition of vehicle alone.

[3] = Metabolism of OXE antagonists by monkey liver microsomes; assay type: in vitro ADME, cynomolgous monkey
Protocol: Metabolism of OXE Antagonists by Monkey Microsomes
Microsomes (catalog number MKMC-PL) from cynomolgous monkey liver were obtained from Life Technologies. Antagonists (100 μM) were incubated for various times with liver microsomes (0.5 mg protein/ml) in PBS in the presence of NADPH (2 mM). After various times aliquots (0.1 ml) were removed and placed in a tube containing 0.36 ml ice-cold methanol. After addition of 0.74 ml of water along with 1 μg of an appropriate internal standard the samples were stored at −80° C. until analysis by reversed-phase HPLC.

[4] = system: 5-oxo-ETE-induced dermal eosinophil infiltration; assay: Inhibition of 5-oxo-ETE-induced dermal eosinophil infiltration; assay type: in vivo; settings: Rhesus monkeys, biopsy at 24 h
Protocol: Inhibition of 5-Oxo-ETE-Induced Dermal Eosinophil Infiltration
Rhesus monkeys (n=6) were injected intradermally with 5-oxo-ETE (5 μg) or vehicle. Compound 50 (5 or 10 mg/kg) or vehicle were administered by oral gavage both 1 h before and 7 h after injection of 5-oxo-ETE.
Skin biopsies were taken 24 h after administration of 5-oxo-ETE and sections from paraffin-embedded tissue were stained for eosinophil major basic protein, followed by counting of eosinophils.

OXE receptor [5] = target: T1, OXE receptor; settings: previously described values for V230 and its enantiomers; read-out: IC50, previously disclosed/reported; cited from earlier work
[6] = oral gavage 30 mg/kg, over 24 h
[7] = inhibition of calcium mobilization induced by 5-oxo-ETE (10 nM) in human granulocytes, bracketed figure in cell = n, read-out: IC50
[8] = 5-oxo-ETE-induced calcium mobilization
[9] = oral gavage 30 mg/kg, over 24 h, 30 mg/kg

Compound: CC(CC(=O)O)CC(=O)c1c(CCCCCCc2ccccc2)n(C)c2ccc(Cl)cc12 (racemic) [Compound 15, 5-(5-chloro-1-methyl-2-(6-phenylhexyl)-1H-indol-3-yl)-3-methyl-5-oxopentanoic acid]
- course of plasma levels / PK profile in words [1, 6]: declined much more slowly than the S-enantiomer
- IC50 (OXE receptor [2]; [7]): 0.18 nM

Compound: C[C@@H](CC(=O)O)CC(=O)c1c(CCCCCCc2ccccc2)n(C)c2ccc(Cl)cc12 (single isomer, unassigned) [Compound 61]
- course of plasma levels / PK profile in words [1, 6]: higher than those of the S-enantiomer and dropped much more slowly
- IC50 (OXE receptor [2]; [7]): 23 ± 2 nM

Compound: C[C@H](CC(=O)O)CC(=O)c1c(CCCCCCc2ccccc2)n(C)c2ccc(Cl)cc12 [Compound 46, (S)-5-(5-chloro-1-methyl-2-(6-phenylhexyl)-1H-indol-3-yl)-3-methyl-5-oxopentanoic acid]
- course of plasma levels / PK profile in words [1, 6]: fell much more slowly
- plasma levels relative to V230 at later time points [1, 6]: at least 10 times higher
- difference in unmetabolized:metabolized ratio versus V230 ([3]; 4 h, in favor of 46): 4 fold
- IC50 (OXE receptor [2]; [7]): 0.1 nM

Compound: C[C@H](CC(=O)O)CC(=O)c1c(CCCCCCc2cccc(Cl)c2)n(C)c2ccc(Cl)cc12 [Compound 50, (S)-5-(5-chloro-2-(6-(3-chlorophenyl)hexyl)-1-methyl-1H-indol-3-yl)-3-methyl-5-oxopentanoic acid]
- 5-Oxo-ETE-induced eosinophil infiltration ([4]; 5 mg/kg oral gavage 1 h before and 7 h after 5-oxo-ETE, p<0.005): significantly inhibited
- 5-Oxo-ETE-induced eosinophil infiltration ([4]; 10 mg/kg oral gavage 1 h before and 7 h after 5-oxo-ETE, p<0.02): significantly inhibited
- IC50 (OXE receptor [2]; 5-oxo-ETE-induced calcium mobilization, read-out: potency (IC50) in the picomolar range): ~0.008 nM
- IC50 (OXE receptor [2]; [7]): 0.0081 ± 0.0013 nM

Compound: CCCCCC(O)c1c(C(=O)CC(C)CC(=O)O)c2cc(Cl)ccc2n1C (stereo not shown) [Compound V230M, reference compound]
- antagonist activity / potency in words (OXE receptor [2]; [8]): significantly reduced IC50
- IC50 (OXE receptor [2]; [7]): 3300 ± 1100 nM

Compound: CC(O)CCCCc1c(C(=O)CC(C)CC(=O)O)c2cc(Cl)ccc2n1C (stereo not shown) [Met a V230 (ω-1)OH, reference compound]
- IC50 (OXE receptor [2]; [7]): 1600 ± 400 nM
- times less potent than compound V230 in blocking 5-oxo-ETE-induced calcium mobilization in neutrophils (OXE receptor [2]): about 100 times

Compound: CC(=O)CCCCc1c(C(=O)CC(C)CC(=O)O)c2cc(Cl)ccc2n1C (stereo not shown) [Met b V230 (ω-1)oxo, reference compound]
- IC50 (OXE receptor [2]; [7]): 1900 ± 500 nM
- times less potent than compound V230 in blocking 5-oxo-ETE-induced calcium mobilization in neutrophils (OXE receptor [2]): about 100 times

Compound: CC(CC(=O)O)CC(=O)c1c(CCCCCCO)n(C)c2ccc(Cl)cc12 (stereo not shown) [V230 ω-OH, reference compound]
- IC50 (OXE receptor [2]; [7]): 260 ± 30 nM

More lines, main results first:

- time to peak / maximal plasma levels ([1]; oral gavage 30 mg/kg (46M after administration of 46)): 8 to 12 h
- IC50 (OXE receptor [2]; [7]): 0.8 ± 0.3 nM
Compound: C[C@H](CC(=O)O)CC(=O)c1c(C(O)CCCCCc2ccccc2)n(C)c2ccc(Cl)cc12 (stereo partly shown) [Compound 46M]
- antagonist activity / potency in words (OXE receptor [2]; [8]): 5-oxo-ETE-induced calcium mobilization inhibitors

- IC50 (OXE receptor [2]; [7]): 20 nM
Compound: CC(C)CCCCc1c(C(=O)CC(C)CC(=O)O)c2cc(Cl)ccc2n1C (stereo not shown) [Compound V197, reference compound]
- course of plasma levels / PK profile in words [1, 9]: dropped quite rapidly after 1 h; also recorded: inferior to that of compound V230

- extent of metabolism in plasma in words ([1]; oral gavage 30 mg/kg, after 8 h, compared with 46): much greater
- extent of metabolism by microsomes in words ([3]; NADPH, up to 4 h, compared with 46): much greater
Compound: CCCCCCc1c(C(=O)C[C@H](C)CC(=O)O)c2cc(Cl)ccc2n1C [Compound V230, reference compound]
- course of plasma levels / PK profile in words [1, 9]: dropped quite rapidly after 1 h; also recorded: rapid decline
- IC50 (OXE receptor [5]): 26 ± 4 nM
